From patent US20060223837A1 (priority 2005, published 2006)
pEC50, pIC50, pKi: −log10 of the molar value. Counter-ions that a name gives are not always drawn.

Assays:
human VR1 [1] = molecular target: T1, human VR1 (Homo sapiens, UniProt Q8NER1); assay: Human VR1 [3H]RTX binding assay; conditions: for h Binding % I (1 μM) / inhibition at 1 µM: inhibition of [3H]RTX binding at 1 μM; for pKi: [3H]RTX binding, HEK293 membranes; for inhibition at 1 µM: read-out: h Binding % I (1 μM)
T1 construct: expressed in transfected cells; host or cells: HEK293
T1 sequence (Q8NER1 whole entry): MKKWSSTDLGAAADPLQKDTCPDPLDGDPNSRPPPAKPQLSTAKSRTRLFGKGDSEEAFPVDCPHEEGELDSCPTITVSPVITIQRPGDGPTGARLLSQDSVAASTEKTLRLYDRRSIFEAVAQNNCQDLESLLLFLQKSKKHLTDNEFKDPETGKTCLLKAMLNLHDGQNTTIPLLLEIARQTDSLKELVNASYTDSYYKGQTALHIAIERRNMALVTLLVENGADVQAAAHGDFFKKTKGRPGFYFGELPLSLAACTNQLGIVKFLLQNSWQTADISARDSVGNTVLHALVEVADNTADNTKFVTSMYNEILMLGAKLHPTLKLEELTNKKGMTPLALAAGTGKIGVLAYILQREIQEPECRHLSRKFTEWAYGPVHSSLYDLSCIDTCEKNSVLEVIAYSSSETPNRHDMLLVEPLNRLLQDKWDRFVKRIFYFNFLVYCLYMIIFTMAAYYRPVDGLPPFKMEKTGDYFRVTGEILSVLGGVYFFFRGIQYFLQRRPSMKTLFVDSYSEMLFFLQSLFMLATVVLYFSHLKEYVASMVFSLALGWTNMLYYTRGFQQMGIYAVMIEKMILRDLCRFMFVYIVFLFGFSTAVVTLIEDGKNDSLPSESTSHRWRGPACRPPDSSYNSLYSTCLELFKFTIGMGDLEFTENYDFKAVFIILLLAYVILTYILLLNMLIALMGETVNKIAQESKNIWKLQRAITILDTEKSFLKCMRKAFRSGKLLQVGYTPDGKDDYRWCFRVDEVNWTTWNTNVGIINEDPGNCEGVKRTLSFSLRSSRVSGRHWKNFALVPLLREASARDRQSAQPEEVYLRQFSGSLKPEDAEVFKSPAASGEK
Experimental: Compounds of the present invention were tested for their ability to inhibit the binding of tritiated resiniferatoxin ([^3H] RTX) to human VR1 receptors in a [^3H] RTX binding assay, as previously described (Zhang, Sui-Po. Improved ligand binding assays for vanilloid receptors. PCT Int. Appl. (2002), WO 0233411 A1 20020425 AN 2002:315209; Grant, Elfrida R., Dubin, Adrienne E., Zhang, Sui-Po, Zivin, Robert A., Zhong, Zhong Simultaneous intracellular calcium and sodium flux imaging in human VR1-transfected human embryonic kidney cells: a method to resolve ionic dependence of VR1-mediated cell death. J. Pharmacol. Exp. ther., 2002, 300(1), 9-17.) HEK293 cells were transfected with human VR1 and washed with Hank's balanced Salt Solution, dissociated with cell dissociation buffer (Sigma), and then centrifuged at 1000× g for 5 min. Cell pellets were homogenized in cold 20 mM HEPES buffer (pH 7.4), containing 5.8 mM NaCl, 320 mM sucrose, 2 mM MgCl2, 0.75 CaCl2 and 5 mM KCl and centrifuged at 1000× g for 15 min. The resultant supernate was then centrifuged at 40000× g for 15 min. The pelleted membranes were stored in a freezer at −80 C.
Approximately 120 μg protein/ml from membranes were incubated with indicated concentrations of [^3H]RTX in 0.5 ml of the HEPES buffer (pH 7.4) containing 0.25 mg/mL fatty acid-free bovine serum albumin at 37 C for 60 min. After cooling the reaction mixture to 4 C, 0.1 mg (x-acid glycoprotein was added to each sample, which was incubated at 4 C for 15 min and then centrifuged at 18500× g for 15 min. The tip of the microcentrifuge tube containing the pellet was cut off. Bound radioactivity was quantified by scintillation counting. Non-specific binding was assessed in the presence of 200 nM unlabeled resiniferatoxin.
Data were calculated according to the equation: % inhibtion=(total binding−binding)*100/(total binding−non specific binding).
Ki values were calculated based on an average of duplicate measurements using a GraphPad Prism program.

human VR1 [2] = molecular target: T1, human VR1; assay: Human VR1 functional assay (FLIPR intracellular Ca2+); type: cell-based; conditions: for Emax at 12 µM: read-out: % Response Relative to EC80 of Capsaicin (12 μM); for pIC50: antagonism of capsaicin-induced Ca2+ increase, read-out: h IC50; for Emax at 6 µM: read-out: % Response Relative to EC80 of Capsaicin (6 μM); for pEC50: agonist-induced Ca2+ increase, read-out: h EC50; for inhibition at 1 µM: read-out: h % I (1 μM); for inhibition at 5 µM: read-out: h % I (5 μM)
Procedure, shortened: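 HEK293 cells expressing human VR1, loaded with Calcium 3 dye, were exposed to test compounds for 5 min while FLIPR recorded intracellular Ca2+, then challenged with capsaicin at ~80% maximal response ([…]). EC50 or IC50 came from dose-response curves on quadruplicate-well means.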

[3] = inhibition of capsaicin response
[4] = inhibition of capsaicin response, 10 μM

Row | Structure (SMILES) | h Binding % I (1 μM) (human VR1 [1]) | pKi (human VR1 [1]) | inhibition at 1 µM (human VR1 [1]) | Emax at 12 µM (human VR1 [2]; agonist response) | further results
1 | NC(=O)c1cccc(-c2ccc(NC(=O)CCc3ccc(C(F)(F)F)cc3)cc2)c1 [Cpd 48] | 2.1% | – | – | – | % Response Relative to EC80 of Capsaicin (12 μM) (human VR1 [2]; agonist response): 57%
2 | CC(=O)Nc1cccc(-c2ccc(NC(=O)CCc3ccc(C(C)(C)C)cc3)cc2C)c1 [Cpd 55] | – | 6.74 | 66% | 69% | –
3 | CC(=O)Nc1cccc(-c2ccc(NC(=O)CCc3ccc(C(C)(C)C)cc3)cc2F)c1 [Cpd 57] | – | 6.58 | 66% | 84% | –
4 | Cc1cc(-c2cccc(O)c2)ccc1NC(=O)CCc1ccc(C(C)(C)C)cc1 [Cpd 58] | 43% | – | – | – | % Response Relative to EC80 of Capsaicin (6 μM) (human VR1 [2]; agonist response, 6 μM): 19%
5 | Cc1cc(NC(=O)CCc2ccc(C(C)(C)C)cc2)ccc1-c1cccc(O)c1 [Cpd 59, 3-(4-tert-butyl-phenyl)-N-(3′-hydroxy-2-methyl-biphenyl-4-yl)-propionamide] | – | 7.97 | 103% | – | pIC50 (human VR1 [2]): 6.31; inhibition at 10 µM (human VR1 [2]; inhibition of capsaicin response, 10 μM, read-out: h % I (10 μM)): 101%
6 | CC(C)(C)c1ccc(CCC(=O)Nc2ccc(-c3cccc(O)c3)cc2F)cc1 [Cpd 60] | – | 6.27 | 52% | 84% | –
7 | CC(C)(C)c1ccc(CCC(=O)Nc2ccc(-c3cccc(O)c3)c(F)c2)cc1 [Cpd 61] | – | 7.27 | 96% | 68% | –
8 | CC(C)(C)c1ccc(CCC(=O)Nc2ccc(-c3cccc(O)c3)cc2)cc1 [Cpd 62] | 23% | – | – | – | h % I (5 μM) (human VR1 [2]; [3]): 16%
9 | CC(C)(C)c1ccc(CCC(=O)Nc2ccc(-c3cccc(O)c3)cc2)s1 [Cpd 65, 3-(5-tert-butyl-thiophen-2-yl)-N-(3′-hydroxy-biphenyl-4-yl)-propionamide] | – | 6.77 | 77% | 87% | –
10 | CC(C)(C)c1ccc(CCC(=O)Nc2ccc(-c3cccc(C(N)=O)c3)cc2CO)cc1 [Cpd 69] | 1% | – | – | – | h % I (10 μM) (human VR1 [2]; [4]): 6%
11 | CC(=O)Nc1cccc(-c2ccc(NC(=O)CCc3ccc(C(C)(C)C)cc3)c(CO)c2)c1 [Cpd 70] | 1% | – | – | – | h % I (10 μM) (human VR1 [2]; [4]): 7%
12 | CC(C)(C)c1ccc(CCC(=O)Nc2ccc(-c3cccc(O)c3)cc2CO)cc1 [Cpd 71] | 1% | – | – | – | h % I (10 μM) (human VR1 [2]; [4]): 5%
13 | CC(C)(C)c1ccc(CCC(=O)Nc2ccc(-c3cccc(C(N)=O)c3)c(C(=O)O)c2)cc1 [Cpd 72] | 1% | – | – | – | h % I (10 μM) (human VR1 [2]; [4]): 11%
14 | CC(=O)Nc1cccc(-c2ccc(NC(=O)CCc3ccc(C(C)(C)C)cc3)cc2C(=O)O)c1 [Cpd 73] | 1% | – | – | – | h % I (10 μM) (human VR1 [2]; [4]): 20%
15 | CC(C)(C)c1ccc(CCC(=O)Nc2ccc(-c3cccc(O)c3)c(C(=O)O)c2)cc1 [Cpd 74] | 1% | – | – | – | h % I (10 μM) (human VR1 [2]; [4]): 8%
16 | CC(=O)Nc1cccc(-c2ccc(NC(=O)CCc3ccc(C(F)(F)F)cc3)cc2)c1 [Cpd 75] | 6% | – | – | – | % Response Relative to EC80 of Capsaicin (12 μM) (human VR1 [2]; agonist response): 82%
17 | O=C(CCc1ccc(C(F)(F)F)cc1)Nc1ccc(-c2ccccc2O)cc1 [Cpd 76] | – | 6.38 | 50% | 77% | –
18 | O=C(CCc1ccc(C(F)(F)F)cc1)Nc1ccc(-c2cccc(O)c2)cc1 [Cpd 77] | – | 6.87 | 72% | 88% | –
19 | O=C(CCc1ccc(C(F)(F)F)cc1)Nc1ccc(-c2ccc(O)cc2)cc1 [Cpd 78] | – | 6.54 | 56% | 70% | –
20 | O=C(CCc1ccc(C(F)(F)F)cc1)Nc1ccc(-c2cccc(CO)c2)cc1 [Cpd 79] | 19% | – | – | – | % Response Relative to EC80 of Capsaicin (12 μM) (human VR1 [2]; agonist response): 74%
21 | O=C(CCc1ccc(C(F)(F)F)cc1)Nc1ccc(-c2ccc(CO)cc2)cc1 [Cpd 80] | – | 6.57 | 62% | 77% | –
22 | CC(=O)Nc1cccc(-c2ccc(NC(=O)CCc3ccc(C(C)(C)C)cc3)c3ccccc23)c1 [Cpd 81] | 6% | – | – | – | h % I (5 μM) (human VR1 [2]; [3]): 11%

Row | Structure (SMILES) | h Binding % I (1 μM) (human VR1 [1]) | pKi (human VR1 [1]) | inhibition at 1 µM (human VR1 [1]) | Emax at 12 µM (human VR1 [2]; agonist response) | further results
23 | CC(C)(C)c1ccc(CCC(=O)Nc2ccc(-c3cccc(O)c3)c3ccccc23)cc1 [Cpd 82] | 28% | – | – | – | h % I (5 μM) (human VR1 [2]; [3]): 39%
24 | NC(=O)c1cccc(-c2ccc(NC(=O)CCc3ccc(C(F)(F)F)cc3)c3ccccc23)c1 [Cpd 83] | 1% | – | – | – | h % I (5 μM) (human VR1 [2]; [3]): 31%
25 | CC(=O)Nc1cccc(-c2ccc(NC(=O)CCc3ccc(C(F)(F)F)cc3)c3ccccc23)c1 [Cpd 84] | 1% | – | – | – | h % I (5 μM) (human VR1 [2]; [3]): 43%
26 | O=C(CCc1ccc(C(F)(F)F)cc1)Nc1ccc(-c2cccc(O)c2)c2ccccc12 [Cpd 85] | 1% | – | – | – | h % I (5 μM) (human VR1 [2]; [3]): 21%
27 | CC(C)(C)c1ccc(CCC(=O)Nc2ccc(-c3ccccc3O)c(CO)c2)cc1 [Cpd 92] | – | 7.05 | – | – | Emax at 6 µM (human VR1 [2]; agonist response, 6 μM): 133%; pEC50 (human VR1 [2]): 6.95; inhibition at 1 µM (human VR1 [2]; [3]): 84%
28 | CC(C)(C)c1ccc(CCC(=O)Nc2ccc(-c3cccc(O)c3)c(CO)c2)cc1 [Cpd 93] | – | 7.47 | – | – | Emax at 6 µM (human VR1 [2]; agonist response, 6 μM): 153%; pEC50 (human VR1 [2]): 7.19; inhibition at 1 µM (human VR1 [2]; [3]): 93%
29 | CC(C)(C)c1ccc(CCC(=O)Nc2ccc(-c3ccc(O)cc3)c(CO)c2)cc1 [Cpd 94] | – | 7.38 | – | – | Emax at 6 µM (human VR1 [2]; agonist response, 6 μM): 115%; pEC50 (human VR1 [2]): 7.03; inhibition at 1 µM (human VR1 [2]; [3]): 92%
30 | CC(C)(C)c1ccc(CCC(=O)Nc2ccc(-c3ccc(CO)cc3)c(CO)c2)cc1 [Cpd 96] | – | 7.11 | – | – | Emax at 6 µM (human VR1 [2]; agonist response, 6 μM): 65%; inhibition at 1 µM (human VR1 [2]; [3]): 91%
31 | Cc1cc(NC(=O)CCc2ccc(C(C)(C)C)cc2)ccc1-c1ccccc1O [Cpd 97] | – | 7.82 | – | – | pIC50 (human VR1 [2]): 6.64; inhibition at 1 µM (human VR1 [2]; [3]): 95%; inhibition at 5 µM (human VR1 [2]; [3]): 104%
32 | Cc1cc(NC(=O)CCc2ccc(C(C)(C)C)cc2)ccc1-c1ccc(O)cc1 [Cpd 98] | – | 7.24 | – | – | pIC50 (human VR1 [2]): 6.38; inhibition at 1 µM (human VR1 [2]; [3]): 97%; inhibition at 5 µM (human VR1 [2]; [3]): 102%
33 | Cc1cc(NC(=O)CCc2ccc(C(C)(C)C)cc2)ccc1-c1ccc(CO)cc1 [Cpd 99] | – | 7.54 | – | – | pIC50 (human VR1 [2]): 6.68; inhibition at 1 µM (human VR1 [2]; [3]): 97%; inhibition at 5 µM (human VR1 [2]; [3]): 79%
34 | CC(C)(C)c1ccc(CCC(=O)Nc2ccc(-c3ccccc3O)c(F)c2)cc1 [Cpd 100] | – | 7.17 | – | – | Emax at 6 µM (human VR1 [2]; agonist response, 6 μM): 96%; inhibition at 1 µM (human VR1 [2]; [3]): 87%
35 | CC(C)(C)c1ccc(CCC(=O)Nc2ccc(-c3ccc(O)cc3)c(F)c2)cc1 [Cpd 101] | – | 7.30 | – | – | Emax at 6 µM (human VR1 [2]; agonist response, 6 μM): 71%; inhibition at 1 µM (human VR1 [2]; [3]): 95%
36 | CC(C)(C)c1ccc(CCC(=O)Nc2ccc(-c3ccc(CO)cc3)c(F)c2)cc1 [Cpd 102] | – | 7.41 | – | – | Emax at 6 µM (human VR1 [2]; agonist response, 6 μM): 74%; inhibition at 1 µM (human VR1 [2]; [3]): 97%
37 | CC(C)(C)c1ccc(CCC(=O)Nc2ccccc2-c2ccncc2)cc1 [Cpd 103] | – | – | 1% | – | pIC50 (human VR1 [2]): 5.45
38 | CC(C)(C)c1ccc(CCC(=O)Nc2cccc(-c3ccncc3)c2)cc1 [Cpd 104] | – | 6.74 | 73% | 62% | –
39 | CC(C)(C)c1ccc(CCC(=O)Nc2ccccc2-c2cccnc2)cc1 [Cpd 105] | – | – | 1% | – | pIC50 (human VR1 [2]): 5.40
40 | CC(C)(C)c1ccc(CCC(=O)Nc2ccc(-c3cccnc3)cc2)cc1 [Cpd 107] | – | 6.92 | 82% | 78% | –
41 | CC(C)(C)c1ccc(CCC(=O)Nc2ccccc2-c2ccccn2)cc1 [Cpd 108] | – | – | 16% | 98% | pEC50 (human VR1 [2]): 6.03
42 | CC(C)(C)c1ccc(CCC(=O)Nc2cccc(-c3ccccn3)c2)cc1 [Cpd 109, 3-(4-tert-butyl-phenyl)-N-(3-pyridin-2-yl-phenyl)-propionamide hydrochloride] | – | – | 1% | 47% | –
43 | CC(C)(C)c1ccc(CCC(=O)Nc2ccc(-c3ccncc3)cc2)cc1 [Cpd 111, 3-(4-tert-butyl-phenyl)-N-(4-pyridin-4-yl-phenyl)-propionamide] | – | 6.77 | 61% | 119% | pEC50 (human VR1 [2]): 7.74
44 | CC(C)(C)c1ccc(CCC(=O)Nc2ccc(-c3cncnc3)cc2)cc1 [Cpd 113] | – | 6.49 | 67% | 101% | pEC50 (human VR1 [2]): 6.11
